Source: patent publication US9133240B2, “Compounds binding to the bacterial beta ring” (Centre National de la Recherche Scientifique, priority 2011, dated 2015)
Several values for one entry are separate records, joined by “and”; a condition that tells them apart may be missing. Equal values may be shown once. Square brackets hold non-standard residues; d marks the D form. Ends that are not written are not given here. Peptide text beside a SMILES is read from it. Phe(3,4-Cl2) = N[C@@H](Cc1ccc(Cl)c(Cl)c1)C(=O)O; Phe(4-Br) = N[C@@H](Cc1ccc(Br)cc1)C(=O)O; Phe(4-Cl) = N[C@@H](Cc1ccc(Cl)cc1)C(=O)O; Phe(4-Me) = Cc1ccc(C[C@H](N)C(=O)O)cc1; hCha = N[C@@H](CCC1CCCCC1)C(=O)O; tBuAla = CC(C)(C)C[C@H](N)C(=O)O; Cha = N[C@@H](CC1CCCCC1)C(=O)O; hLeu = CC(C)CC[C@H](N)C(=O)O

Assays:
E. coli β clamp = target: T1, E. coli β clamp (Escherichia coli, UniProt P0A988); assay: SPR competition assay: inhibition of P1-β interaction by challenging peptides; assay type: binding; conditions: for ΔG: ΔG = −RT ln Ki; for Ki (10^6 M^−1): Ki = (1 + KA[β])/IC50;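 for all read-outs here: SPR responses corrected for background, then fitted with a 1:1 Langmuir binding model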
T1 construct: made in house; host or cells: E. coli BL21 (β); P1 by solid-phase synthesis
T1 sequence (P0A988 whole entry): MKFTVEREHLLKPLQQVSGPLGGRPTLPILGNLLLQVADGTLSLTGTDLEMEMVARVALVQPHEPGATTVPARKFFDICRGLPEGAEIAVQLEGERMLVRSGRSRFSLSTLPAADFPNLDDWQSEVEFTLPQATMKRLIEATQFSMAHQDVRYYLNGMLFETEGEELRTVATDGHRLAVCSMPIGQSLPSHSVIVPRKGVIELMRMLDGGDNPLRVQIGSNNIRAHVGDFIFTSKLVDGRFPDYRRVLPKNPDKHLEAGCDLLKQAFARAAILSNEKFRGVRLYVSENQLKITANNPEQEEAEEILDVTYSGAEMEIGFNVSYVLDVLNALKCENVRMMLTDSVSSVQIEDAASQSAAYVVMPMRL
Description: SPR experiments were performed on a Biacore® 3000. […] After subtraction of the background response, the data were fit to the 1:1 Langmuir model using BIAevaluation (Biacore™). […] IC50 values for each challenging peptide were determined by plotting the concentration of peptide against the percentage of binding inhibition. The IC50 value of each peptide was used to calculate Ki (Ki=(1+KA[β])/IC50) which measures the affinity of the challenging peptide for β in the competition assay, and AG was derived from Ki (ΔG=RT ln Ki).

β ring [1] = target: T2, β ring (Escherichia coli, UniProt P0A988); assay: Isothermal titration calorimetry (ITC) of peptides into β ring solution; assay type: binding, E. coli; conditions: for N: number of binding sites per β monomer / ΔG / Kd / ΔS (cal/mol/deg): ITC; for ΔG: ΔG = ΔH-TΔS; for ΔΔG (Kcal/mol) = ΔGj − ΔGi, reference i = P7: compared to P7; for ΔΔG (Kcal/mol) = ΔGj − ΔGi, reference i = P11: compared to P11; for ΔΔG (Kcal/mol) = ΔGj − ΔGi, reference i = P13: compared to P13
T2 construct: made in house; host or cells: E. coli BL21
Description: ITC was performed by using a ITC200 microcalorimeter from MicroCal. Peptides (400 μM) were titrated in sequential injections (2 μl each) into a β ring solution (300 μl, 20 or 30 μM) at 25° C. Data were corrected from control experiments where peptides were injected in buffer solution (Hepes 10 mM pH 7.4, NaCl 0.15M, EDTA 3 mM, P20 0.005%). Data analysis was performed with Origin 7.0 software.
Target sequence in this assay (P0A988 whole entry): as above

β ring [2] = target: T2, β ring; assay: IC50 SPR (μM)
Excerpt: Table printed on a drawing sheet, Figure 4
Head of the field: IC50 SPR (μM)
The patent's description of the figure: FIG. 4: Polymerase competition assay. […] Grey: biochemical assay, black: SPR assay. P15 sequence is Ac-RQLVLF, (SEQ ID No: 15), Scr: scrambled peptide: Ac-ChaFQLD, (SEQ ID No: 33).
First copying reader's note: The biochemical assay row is printed with decimal commas and the SPR row with decimal points.
Where the first naming reader finds the target: passage: the relative affinity of two compounds for the β ring is not dependent from the technique used for measuring said affinities (FIG. 4B)
Target sequence in this assay (P0A988 whole entry, looked up): as the sequence (P0A988 whole entry) above

[3] = peptide 400 μM, β 20 or 30 μM, 25° C
[4] = IC50 (μM), SPR, inhibition of binding of β ring (0.25 μM) to immobilized P1
[5] = Kd (nM), peptide 400 μM, β 20 or 30 μM, 25° C

Row | Compound | ΔG (E. coli β clamp; SPR) [kcal/mol] | N: number of binding sites per β monomer (β ring [1]; [3]) | IC50 (E. coli β clamp; [4]) [µM] | Ki (10^6 M^−1) (E. coli β clamp; SPR) | further results
1 | CC(C)C[C@H](NC(=O)[C@H](CC(=O)O)NC(=O)[C@H](CC(C)C)NC(=O)[C@@H](N)CCC(N)=O)C(=O)N[C@@H](Cc1ccccc1)C(=O)O [Peptide P5, H-Gln-Leu-Asp-Leu-Phe-OH] | -6.87 |  |  |  | 
2 | CC(=O)N[C@@H](CCC(N)=O)C(=O)N[C@@H](CC(C)C)C(=O)N[C@@H](CC(=O)O)C(=O)N[C@@H](CC(C)C)C(=O)N[C@@H](Cc1ccccc1)C(=O)O [Peptide P6, Ac-Gln-Leu-Asp-Leu-Phe-OH] | -8.22 | 1.11 and 1.14 |  |  | 
3 | CC(=O)N[C@@H](CCC(N)=O)C(=O)N[C@@H](CC1CCCCC1)C(=O)N[C@@H](CC(=O)O)C(=O)N[C@@H](CC(C)C)C(=O)N[C@@H](Cc1ccccc1)C(=O)O [Peptide P7, Ac-Gln-Cha-Asp-Leu-Phe-OH] (Ac-Q[Cha]DLF-OH) | -9.42 | 0.74 and 0.76 | 0.17 | 8.01 10^6 M^−1 | Ki (E. coli β clamp): 170 nM; fold decrease in affinity compared to P14 (E. coli β clamp; SPR): 2 fold; fold increase in interaction/affinity compared to P6 (E. coli β clamp; SPR): 6 fold; ΔG (β ring [1]; 25° C): -8.9 kcal/mol; ΔΔG (Kcal/mol) = ΔGj − ΔGi, reference i = P6 (β ring [1]; from ITC data, compared to P6): -0.66 kcal/mol
4 | CC(=O)N[C@@H](CCC(N)=O)C(=O)N[C@@H](CCC1CCCCC1)C(=O)N[C@@H](CC(=O)O)C(=O)N[C@@H](CC(C)C)C(=O)N[C@@H](Cc1ccccc1)C(=O)O [Peptide P8, Ac-Gln-hCha-Asp-Leu-Phe-OH] (Ac-Q[hCha]DLF-OH) | -5.74 |  | 82.8 | 16.4 10^6 M^−1 | 
5 | CC(=O)N[C@@H](CCC(N)=O)C(=O)N[C@@H](CCC(C)C)C(=O)N[C@@H](CC(=O)O)C(=O)N[C@@H](CC(C)C)C(=O)N[C@@H](Cc1ccccc1)C(=O)O [Peptide P9, Ac-Gln-Hol-Asp-Leu-Phe-OH] | -8.54 |  | 0.74 | 1.84 10^6 M^−1 | 
6 | CC(=O)N[C@@H](CCC(N)=O)C(=O)N[C@@H](CC(C)(C)C)C(=O)N[C@@H](CC(=O)O)C(=O)N[C@@H](CC(C)C)C(=O)N[C@@H](Cc1ccccc1)C(=O)O [Peptide P10, Ac-Gln-NptGly-Asp-Leu-Phe-OH] (Ac-Q[tBuAla]DLF-OH) | -8.36 |  | 0.99 | 1.36 10^6 M^−1 | 
7 | CC(=O)N[C@@H](CCC(N)=O)C(=O)N[C@@H](CC1CCCCC1)C(=O)N[C@@H](CC(=O)O)C(=O)N[C@@H](CC(C)C)C(=O)N[C@@H](Cc1ccc(C)cc1)C(=O)O [Peptide P11, Ac-Gln-Cha-Asp-Leu-pMePhe-OH] (Ac-Q[Cha]DL[Phe(4-Me)]-OH) | -9.44 | 0.95 | 0.26 | 8.43 10^6 M^−1 | ΔG (β ring [1]; 25° C): -8.6 kcal/mol; ΔΔG (Kcal/mol) = ΔGj − ΔGi, reference i = P7 (β ring [1]; from ITC data): +0.25 Kcal/mol
8 | CC(=O)N[C@@H](CCC(N)=O)C(=O)N[C@@H](CC1CCCCC1)C(=O)N[C@@H](CC(=O)O)C(=O)N[C@@H](CC(C)C)C(=O)N[C@@H](Cc1ccc(Cl)cc1)C(=O)O [Peptide P12, Ac-Gln-Cha-Asp-Leu-pClPhe-OH] (Ac-Q[Cha]DL[Phe(4-Cl)]-OH) | -9.73 | 1.02 and 1.06 | 0.16 | 13.7 10^6 M^−1 | ΔΔG (Kcal/mol) = ΔGj − ΔGi, reference i = P7 (β ring [1]; from ITC data): -0.6 kcal/mol; ΔΔG (Kcal/mol) = ΔGj − ΔGi, reference i = P11 (β ring [1]; from ITC data): -0.85 kcal/mol; ΔΔG (Kcal/mol) = ΔGj − ΔGi, reference i = P13 (β ring [1]; from ITC data): -0.32 kcal/mol
9 | CC(=O)N[C@@H](CCC(N)=O)C(=O)N[C@@H](CC1CCCCC1)C(=O)N[C@@H](CC(=O)O)C(=O)N[C@@H](CC(C)C)C(=O)N[C@@H](Cc1ccc(Br)cc1)C(=O)O [Peptide P13, Ac-Gln-Cha-Asp-Leu-pBrPhe-OH] (Ac-Q[Cha]DL[Phe(4-Br)]-OH) | -9.71 | 0.85 and 0.83 | 0.096 | 13.49 10^6 M^−1 | ΔΔG (Kcal/mol) = ΔGj − ΔGi, reference i = P7 (β ring [1]; from ITC data): -0.28 kcal/mol; ΔΔG (Kcal/mol) = ΔGj − ΔGi, reference i = P11 (β ring [1]; from ITC data): -0.53 kcal/mol
10 | CC(=O)N[C@@H](CCC(N)=O)C(=O)N[C@@H](CC1CCCCC1)C(=O)N[C@@H](CC(=O)O)C(=O)N[C@@H](CC(C)C)C(=O)N[C@@H](Cc1ccc(Cl)c(Cl)c1)C(=O)O [Peptide P14, Ac-Gln-Cha-Asp-Leu-(3,4-di-Cl)Phe-OH] (Ac-Q[Cha]DL[Phe(3,4-Cl2)]-OH) | -9.85 | 0.91 and 0.90 | 0.077 | 17 10^6 M^−1 | fold increase compared to the full PolIV enzyme (E. coli β clamp): 4 fold; IC50 (E. coli β clamp; IC50 SPR (nM), SPR): 0.07 µM; fold increase in interaction/affinity compared to P6 (E. coli β clamp; SPR): 15 fold; fold increase compared to P1 (E. coli β clamp; SPR IC50): 115 fold; Kd (β ring [1]; [5]): ~60 nM; ΔΔG (Kcal/mol) = ΔGj − ΔGi, reference i = P7 (β ring [1]; from ITC data): -0.8 kcal/mol; ΔΔG (Kcal/mol) = ΔGj − ΔGi, reference i = P11 (β ring [1]; from ITC data): -1.05 kcal/mol; ΔΔG (Kcal/mol) = ΔGj − ΔGi, reference i = P12 (β ring [1]; from ITC data, compared to P12): -0.2 kcal/mol; ΔΔG (Kcal/mol) = ΔGj − ΔGi, reference i = P13 (β ring [1]; from ITC data): -0.52 kcal/mol
11 | CC(=O)N[C@@H](CCCNC(=N)N)C(=O)N[C@@H](CCC(N)=O)C(=O)N[C@@H](CC1CCCCC1)C(=O)N[C@@H](CCCNC(=N)N)C(=O)N[C@@H](CC(C)C)C(=O)N[C@@H](Cc1ccccc1)C(=O)O [Peptide P14-7, Ac R Q Cha R L F] (Ac-RQ[Cha]RLF-OH; N-terminus and C-terminus assumed) |  |  |  |  | affinity ratio compared to P7 (E. coli β clamp; SPR): at least 50
12 | CC(=O)N[C@@H](CCCNC(=N)N)C(=O)N[C@@H](CCC(N)=O)C(=O)N[C@@H](CC1CCCCC1)C(=O)N[C@@H](CCCCN)C(=O)N[C@@H](CC(C)C)C(=O)N[C@@H](Cc1ccccc1)C(=O)O [Peptide P14-8, Ac R Q Cha K L F] (Ac-RQ[Cha]KLF-OH; C-terminus assumed) |  |  |  |  | Ki (E. coli β clamp): 904 nM; affinity for the target (E. coli β clamp; SPR): 1 µM; fold decrease in affinity compared to P14 (E. coli β clamp; SPR): 10 fold
13 | CC(=O)N[C@@H](CCC(N)=O)C(=O)N[C@@H](CC1CCCCC1)C(=O)N[C@@H](CC(=O)O)C(=O)N[C@@H](CCC(C)C)C(=O)N[C@@H](Cc1ccccc1)C(=O)O [Peptide P16, Ac Q Cha D hLeu F] (Ac-Q[Cha]D[hLeu]F-OH; C-terminus assumed) |  |  | 0.23 |  | 
14 | CC(=O)N[C@@H](CCC(N)=O)C(=O)N[C@@H](CC1CCCCC1)C(=O)N[C@@H](CC(=O)O)C(=O)N[C@@H](CC1CCCCC1)C(=O)N[C@@H](Cc1ccccc1)C(=O)O [Peptide P17, Ac Q Cha D Cha F] (Ac-Q[Cha]D[Cha]F-OH; C-terminus assumed) |  |  | 0.31 |  | 
15 | CC(=O)N[C@@H](CCC(N)=O)C(=O)N[C@@H](CC1CCCCC1)C(=O)N[C@@H](CC(=O)O)C(=O)N[C@@H](CCC1CCCCC1)C(=O)N[C@@H](Cc1ccccc1)C(=O)O [Peptide P18, Ac Q Cha D hCha F] (Ac-Q[Cha]D[hCha]F-OH; C-terminus assumed) |  |  | 0.72 |  | 
16 | CC(=O)N[C@@H](CCC(N)=O)C(=O)N[C@@H](CC1CCCCC1)C(=O)N[C@@H](CC(=O)O)C(=O)N[C@@H](CC(C)(C)C)C(=O)N[C@@H](Cc1ccccc1)C(=O)O [Peptide P19, Ac Q ChaD NptGly F] (Ac-Q[Cha]D[tBuAla]F-OH; C-terminus assumed) |  |  | 5.63 |  | 
17 | CC(=O)N[C@@H](CCC(N)=O)C(=O)N[C@@H](CC1CCCCC1)C(=O)N[C@@H](CC(=O)O)C(=O)N[C@@H](CC(C)C)C(=O)N[C@@H](CC1CCCCC1)C(=O)O [Peptide P20, Ac-Q Cha DL Cha] (Ac-Q[Cha]DL[Cha]-OH; C-terminus assumed) |  |  | 0.41 |  | 
18 | CC(=O)N[C@@H](CCC(N)=O)C(=O)N[C@@H](CC1CCCCC1)C(=O)N[C@@H](CC(=O)O)C(=O)N[C@@H](CC(C)C)C(=O)N[C@@H](Cc1c[nH]c2ccccc12)C(=O)O [Peptide P21, Ac-Q Cha DLW] (Ac-Q[Cha]DLW-OH; C-terminus assumed) |  |  | 0.64 |  | 
19 | Ac-RQLVLF [Peptide P15, Ac-RQLVLF] |  |  |  |  | IC50 (β ring [2]): 1910 nM
20 | H-RQLVFL-OH [Peptide P4, H-Arg-Gln-Leu-Val-Phe-Leu-OH] |  |  | 256 |  | 
21 | H-RQLVLF-OH [Peptide P3, H-Arg-Gln-Leu-Val-Leu-Phe-OH] | -7.04 | 1.54 and 1.45 | 8.62 | 0.15 10^6 M^−1 | ΔS (cal/mol/deg) (β ring [1]; 25° C): 6.05 cal/mol/deg and 6.6 cal/mol/deg; Kd (β ring [1]; [5]): 2820 nM and 2320 nM
22 | H-RQLVLGL-OH [Peptide P1, H-Arg-Gln-Leu-Val-Leu-Gly-Leu-OH, reference compound] | -7.06 | 1.33 and 1.31 | 8.85 | 0.15 10^6 M^−1 | fold less efficient binding to the ring compared to the whole polymerase PolIV (E. coli β clamp; SPR): 30 fold; ΔS (cal/mol/deg) (β ring [1]; 25° C): 12.8 cal/mol/deg and 7.6 cal/mol/deg; Kd (β ring [1]; affinity (ITC)): 1000 to 2000 nM
23 | H-RQLVLL-OH [Peptide P2, H-Arg-Gln-Leu-Val-Leu-Leu-OH] | -6.54 |  | 21.5 | 0.0063 10^6 M^−1 | 
